Results on 19 compounds are retold here after patent publication US10450318B2, “CXCR4 receptor antagonists” (BRISTOL-MYERS SQUIBB COMPANY, priority 2015, dated 2019).

As usually defined, the IC50 is the concentration at which inhibition is half-maximal.

T1 sequence (P61073 whole entry): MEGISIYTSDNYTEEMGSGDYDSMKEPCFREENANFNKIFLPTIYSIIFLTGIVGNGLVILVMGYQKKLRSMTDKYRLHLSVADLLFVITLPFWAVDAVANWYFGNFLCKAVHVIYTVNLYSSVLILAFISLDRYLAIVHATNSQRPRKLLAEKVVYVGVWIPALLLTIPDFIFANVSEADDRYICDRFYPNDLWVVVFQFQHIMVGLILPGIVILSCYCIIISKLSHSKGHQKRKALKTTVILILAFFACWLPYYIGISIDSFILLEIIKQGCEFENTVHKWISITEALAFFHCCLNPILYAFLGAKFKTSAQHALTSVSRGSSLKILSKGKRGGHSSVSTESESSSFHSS

This assay has as its target T1, CXCR4 receptors (Homo sapiens, UniProt P61073).
T1 construct: expressing endogenous CXCR4 receptors; endogenous in cells; host or cells: CCRF-CEM (human T lymphoblast cells)
Description: CXCR4-CEM calcium flux assay, antagonist mode (inhibition of SDF-1α-induced calcium flux). As to conditions: inhibition of calcium flux induced by 4 nM SDF-1α in CCRF-CEM cells. In kind it is cell-based. The method in brief:
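CCRF-CEM cells were preincubated with compound (0.5% DMSO) for 25 min at room temperature, then stimulated with 4 nM SDF-1α. The resulting calcium flux was recorded by FDSS for 90 sec. Percent inhibition was calculated against an internal control compound, and background-corrected EC50 values were derived.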
For orientation: A change in cytosolic calcium serves as a functional read-out for many receptors and channels.
For `CN(Cc1cn2c(N3CCN(Cc4ccccn4)CC3)nccc2n1)[C@H]1CCCc2cccnc21` [Example 55, (S)-N-methyl-N-({5-[4-(pyridin-2-ylmethyl)piperazin-1-yl]imidazo[1,2-c]pyrimidin-2-yl}methyl)-5,6,7,8-tetrahydroquinolin-8-amine], the IC50 was 9 nM. Take `CN(Cc1cn2c(N3CCN(Cc4cccc(O)c4)CC3)nccc2n1)[C@H]1CCCc2cccnc21` [Example 69, 3-({4-[2-({methyl[(S)-5,6,7,8-tetrahydroquinolin-8-yl]amino}methyl)imidazo[1,2-c]pyrimidin-5-yl]piperazin-1-yl}methyl)phenol]: the IC50 was determined as 3.8 nM.

Consider `CN(Cc1nc2ccnc(N3CCN4CCC[C@H]4C3)n2c1CO)[C@H]1CCCc2cccnc21` [Example 108, (5-((S)-Hexahydropyrrolo[1,2-a]pyrazin-2(1H)-yl)-2-((methyl((S)-5,6,7,8-tetrahydroquinolin-8-yl)amino)methyl)imidazo[1,2-c]pyrimidin-3-yl)methanol], for which the IC50 turned out to be 2.1 nM. In the case of `CN(Cc1cn2c(N3CC4CNC4C3)nccc2n1)[C@H]1CCCc2cccnc21` (stereo partly drawn) [Example 89, (8S)-N-((5-(3,6-diazabicyclo[3.2.0]heptan-3-yl)imidazo[1,2-c]pyrimidin-2-yl)methyl)-N-methyl-5,6,7,8-tetrahydroquinolin-8-amine], the IC50 stood at 280 nM. With `CN(Cc1cn2c(N3CCN(CC4CCCO4)CC3)nccc2n1)[C@H]1CCCc2cccnc21` (stereo partly drawn) [Example 58, (S)-N-methyl-N-({5-[4-(oxolan-2-ylmethyl)piperazin-1-yl]imidazo[1,2-c]pyrimidin-2-yl}methyl)-5,6,7,8-tetrahydroquinolin-8-amine] the figure was 60 nM; with `CN1CCN(c2nccc3nc(CN(C)[C@H]4CCCc5cccnc54)cn23)CC1` [Example 4, (S)—N-Methyl-N-((5-(4-methylpiperazin-1-yl)imidazo[1,2-c]pyrimidin-2-yl)methyl)-5,6,7,8-tetrahydroquinolin-8-amine], 2.5 nM. As to `CN(Cc1cn2c(N3CCN(Cc4cccc(Oc5ccccc5)c4)CC3)nccc2n1)[C@H]1CCCc2cccnc21` [Example 57, (8S)-N-methyl-N-[(5-{4-[(3-phenoxyphenyl)methyl]piperazin-1-yl}imidazo[1,2-c]pyrimidin-2-yl)methyl]-5,6,7,8-tetrahydroquinolin-8-amine], the IC50 amounted to 28 nM. On to `CN(Cc1cn2c(N3CCN(CCC(F)(F)F)CC3)nccc2n1)[C@H]1CCCc2cccnc21` [Example 36, (S)-N-methyl-N-({5-[4-(3,3,3-trifluoropropyl)piperazin-1-yl]imidazo[1,2-c]pyrimidin-2-yl}methyl)-5,6,7,8-tetrahydroquinolin-8-amine], for which the IC50 was found to be 30700 nM. In the case of `CN(Cc1cn2c(N3CCN(Cc4ccc(O)cc4)CC3)nccc2n1)[C@H]1CCCc2cccnc21` [Example 24, 4-({4-[2-({methyl[(S)-5,6,7,8-tetrahydroquinolin-8-yl]amino}methyl)imidazo[1,2-c]pyrimidin-5-yl]piperazin-1-yl}methyl)phenol], the IC50 came out at 11 nM. Regarding “(8S)-N-((5-(3-(dimethylamino)pyrrolidin- 1-yl)imidazo[1,2-c]pyrimidin-2- yl)methyl)-N-methyl-5,6,7,8- tetrahydroquinolin-8-amine [Example 75]”, the IC50 was 11 nM.

Take `CN(Cc1cn2c(N3CCN(Cc4ccc(-c5ccccc5)cc4)CC3)nccc2n1)[C@H]1CCCc2cccnc21` [Example 47, (S)-N-methyl-N-[(5-{4-[(4-phenylphenyl)methyl]piperazin-1-yl}imidazo[1,2-c]pyrimidin-2-yl)methyl]-5,6,7,8-tetrahydroquinolin-8-amine]: the IC50 was 9.7 nM. With `CN(Cc1cn2c(N3CCN(C(=O)Nc4cccc(Cl)c4)CC3)nccc2n1)[C@H]1CCCc2cccnc21` [Example 68, N-(3-chlorophenyl)-4-[2-({methyl[(S)-5,6,7,8-tetrahydroquinolin-8-yl]amino}methyl)imidazo[1,2-c]pyrimidin-5-yl]piperazine-1-carboxamide] the figure was 50 nM; with `CN(Cc1cn2c(N3CCN(Cc4cccc(Cl)c4)CC3)nccc2n1)[C@H]1CCCc2cccnc21` [Example 25, (S)-N-[(5-{4-[(3-chlorophenyl)methyl]piperazin-1-yl}imidazo[1,2-c]pyrimidin-2-yl)methyl]-N-methyl-5,6,7,8-tetrahydroquinolin-8-amine], 12 nM. For `CN(Cc1cn2c(N3CCN(S(=O)(=O)c4cccnc4)CC3)nccc2n1)[C@H]1CCCc2cccnc21` [Example 41, (S)-N-methyl-N-({5-[4-(pyridine-3-sulfonyl)piperazin-1-yl]imidazo[1,2-c]pyrimidin-2-yl}methyl)-5,6,7,8-tetrahydroquinolin-8-amine], the IC50 turned out to be 7500 nM.

On to `CN(Cc1cn2c(N3CCN(C(=O)Nc4cccnc4)CC3)nccc2n1)[C@H]1CCCc2cccnc21` [Example 45, 4-[2-({methyl[(S)-5,6,7,8-tetrahydroquinolin-8-yl]amino}methyl)imidazo[1,2-c]pyrimidin-5-yl]-N-(pyridin-3-yl)piperazine-1-carboxamide], for which the IC50 turned out to be 66 nM. Consider `CN(Cc1nc2ccnc(N3CCNCC3)n2c1CO)[C@H]1CCOc2cccnc21` [Example 71, (S)-(2-(((3,4-Dihydro-2H-pyrano[3,2-b]pyridin-4-yl)(methyl)amino)methyl)-5-(piperazin-1-yl)imidazo[1,2-c]pyrimidin-3-yl)methanol], for which the IC50 was determined as 2.7 nM. With `CN(Cc1cn2c(N3CCN(Cc4cccnc4)CC3)nccc2n1)[C@H]1CCCc2cccnc21` [Example 28] the figure was 11 nM. For `CN1CCC2CN(c3nccc4nc(CN(C)[C@H]5CCCc6cccnc65)cn34)CC21` (stereo partly drawn) [Example 100, (8S)-N-methyl-N-((5-(1-methylhexahydropyrrolo[3,4-b]pyrrol-5(1H)-yl)imidazo[1,2-c]pyrimidin-2-yl)methyl)-5,6,7,8-tetrahydroquinolin-8-amine], the IC50 worked out at 210 nM.

`CC(C)CN1CCN(c2nccc3nc(CN(C)[C@H]4CCCc5cccnc54)cn23)CC1` [Example 22, (S)-N-methyl-N-({5-[4-(2-methylpropyl)piperazin-1-yl]imidazo[1,2-c]pyrimidin-2-yl}methyl)-5,6,7,8-tetrahydroquinolin-8-amine]: the IC50 was determined as 42 nM.
